From the supplement of paper PMC10307832

Key:
Assay in all cases: relative viability (nuclei count vs DMSO), 5 days (fraction); higher = more cells survive
[1] = compound: CC1=CC(=CC=C1)NC2=NC(=CS2)C3=CC=NC=C3 + O=C(CCCCCCC(=O)Nc1ccccc1)NO [Vorinostat] (partner 1 µM)
Procedure, shortened: (§1)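 After 5 days of treatment, lung cancer cells in 1536-well plates were fixed and stained in a single step (final 0.05% Triton X-100, 1% formaldehyde, 1 ug/ml Hoechst) and their nuclei counted on 4× images. Treatment had been applied by pin tool the day after seeding as one drug alone or as a fixed anchor-drug dose with five library-drug doses (not always all listed) in √10 steps. Relative viability is the nuclei count of treated wells divided by that of vehicle wells, and values are medians of duplicate plates.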

Masitinib + Luminespib = compound: Cc1ccc(NC(=O)c2ccc(CN3CCN(C)CC3)cc2)cc1Nc1nc(-c2cccnc2)cs1 [Masitinib] + CCNC(=O)c1noc(-c2cc(C(C)C)c(O)cc2O)c1-c1ccc(CN2CCOCC2)cc1 [Luminespib] (partner 0.01 µM)
Procedure, shortened: as §1

Masitinib + Tozasertib = compound: Cc1ccc(NC(=O)c2ccc(CN3CCN(C)CC3)cc2)cc1Nc1nc(-c2cccnc2)cs1 [Masitinib] + Cc1cc(Nc2cc(N3CCN(C)CC3)nc(Sc3ccc(NC(=O)C4CC4)cc3)n2)n[nH]1 [Tozasertib] (partner 0.1 µM)
Procedure, shortened: as §1

Masitinib + Olaparib = compound: Cc1ccc(NC(=O)c2ccc(CN3CCN(C)CC3)cc2)cc1Nc1nc(-c2cccnc2)cs1 [Masitinib] + O=C(c1cc(Cc2n[nH]c(=O)c3ccccc23)ccc1F)N1CCN(C(=O)C2CC2)CC1 [Olaparib] (partner 8 µM)
Procedure, shortened: as §1

Cell Line | relative viability ([1]; first compound 0.08 µM) | relative viability ([1]; first compound 0.253 µM) | relative viability ([1]; first compound 0.8 µM) | relative viability ([1]; first compound 2.53 µM) | relative viability ([1]; first compound 8 µM) | relative viability (Masitinib + Luminespib; first compound 0.01 µM) | relative viability (Masitinib + Luminespib; first compound 0.03162 µM) | relative viability (Masitinib + Luminespib; first compound 0.1 µM) | relative viability (Masitinib + Luminespib; first compound 0.3162 µM) | relative viability (Masitinib + Luminespib; first compound 1 µM) | relative viability (Masitinib + Tozasertib; first compound 0.01 µM) | relative viability (Masitinib + Tozasertib; first compound 0.03162 µM) | relative viability (Masitinib + Tozasertib; first compound 0.1 µM) | relative viability (Masitinib + Tozasertib; first compound 0.3162 µM) | relative viability (Masitinib + Tozasertib; first compound 1 µM) | relative viability (Masitinib + Olaparib; first compound 0.01 µM) | relative viability (Masitinib + Olaparib; first compound 0.03162 µM) | relative viability (Masitinib + Olaparib; first compound 0.1 µM) | relative viability (Masitinib + Olaparib; first compound 0.3162 µM) | relative viability (Masitinib + Olaparib; first compound 1 µM)
NCI-H460 | 0.54 | 0.536 | 0.562 | 0.462 | 0.395 | 0.0454 | 0.0362 | 0.0338 | 0.0453 | 0.0276 | 0.288 | 0.4 | 0.313 | 0.0644 | 0.168 | 0.38 | 0.381 | 0.436 | 0.463 | 0.415
LCLC-103H | 0.635 | 0.69 | 0.679 | 0.667 | 0.567 | 0.727 | 0.932 | 1.04 | 0.748 | 1.03 | 0.43 | 0.497 | 0.506 | 0.443 | 0.434 | – | 0.747 | 0.75 | 0.758 | 0.781
LCLC-97TM1 | 0.558 | 0.741 | 0.623 | 0.601 | 0.988 | – | 0.777 | 0.857 | 0.946 | 0.857 | – | 0.38 | 0.261 | 0.247 | 0.286 | 0.402 | 0.396 | 0.406 | 0.473 | 0.427
NCI-H838 | 0.64 | 0.599 | 0.628 | 0.582 | 0.524 | 0.314 | 0.309 | 0.245 | 0.241 | 0.263 | 0.25 | 0.281 | 0.273 | 0.206 | 0.236 | 0.835 | 0.739 | 0.83 | 0.638 | 0.832
NCI-H1437 | 0.722 | 0.732 | 0.611 | 0.718 | 0.362 | 1.15 | 1.19 | 1.16 | 1.18 | 1.14 | 0.399 | 0.454 | 0.4 | 0.426 | 0.36 | 0.623 | 0.603 | 0.668 | 0.616 | 0.61
HOP-62 | 0.531 | 0.605 | 0.591 | 0.584 | 0.595 | 0.75 | 0.839 | 0.949 | 0.968 | 0.855 | 0.366 | 0.349 | 0.408 | 0.414 | 0.395 | 0.312 | 0.819 | 0.451 | 0.289 | 0.418
NCI-H2087 | 0.615 | 0.725 | 0.762 | 0.574 | 0.708 | 0.158 | 0.166 | 0.153 | 0.202 | 0.181 | 0.317 | 0.22 | 0.239 | 0.211 | 0.236 | 0.73 | 0.583 | 0.63 | 0.523 | 0.7
